# Measurements published in ChEMBL document CHEMBL5380779, “Small Molecules Targeting the RNA-Binding Protein HuR Inhibit Tumor Growth in Xenografts” (J Med Chem, 2023).
# Calls of active or inactive are those of the source. No cut-off for these calls is given here.
# Experiments:
# MDA-MB-231 [1] = assay: Inhibition of HuR-THBS1 mRNA binding in human MDA-MB-231 cells assessed as half life of THBS1 in presence of actinomycin D (reference value: 10.46 hrs); type: cell-based
# [2] = target: ELAV-like protein 1 (Homo sapiens) (UniProt Q15717); assay: Inhibition of TGFbeta2-induced HuR protein expression in human MDA-MB-231 cells at 10 uM incubated for 48 hrs by Western blotting analysis; type: cell-based
# MDA-MB-231 [3] = assay: Inhibition of HuR-16-nt biotinylated ARE Msi1 mRNA binding in human MDA-MB-231 cells at 20 uM by Western blotting analysis based pull-down assay; type: cell-based
# [4] = target: ELAV-like protein 1 (Homo sapiens) (UniProt Q15717); assay: Inhibition of TGFbeta1-induced HuR protein expression in human MDA-MB-231 cells at 10 uM incubated for 48 hrs by Western blotting analysis; type: cell-based
# [5] = Inhibition of full-length HuR-ARE fluorescein-labeled Msi1 mRNA binding (unknown origin) incubated for 2 hrs by fluorescence polarization assay; set-up: species or system Homo sapiens
# [6] = target: Thrombospondin-1 (Homo sapiens) (UniProt P07996); assay: Inhibition of TGFbeta2-induced THBS1 protein expression in human MDA-MB-231 cells at 10 uM incubated for 48 hrs by Western blotting analysis; type: cell-based
# MDA-MB-231 [7] = assay: Inhibition of HuR-XIAP mRNA binding in human MDA-MB-231 cells at 10 uM incubated for 6 hrs by RNP immunoprecipitation assay; type: cell-based
# MDA-MB-231 [8] = assay: Downregulation of Msi2 protein expression in human MDA-MB-231 cells incubated for 48 hrs by Western blotting analysis; type: functional, cell-based; conditions: dose 5-10 µM
# MDA-MB-231 [9] = assay: Downregulation of TGFB2 mRNA expression in human MDA-MB-231 cells transfected with THBS1-ORF at 5 to 10 uM incubated for 24 hrs; type: functional, cell-based; conditions: dose 5-10 µM
# MDA-MB-231 [10] = assay: Antitumor activity against human MDA-MB-231 cells xenografted athymic NCr-nu/nu mouse assessed as tumor growth delay by measuring tumor size at 400 mm^3 at 50 mg/kg, ip administered 5 times a week for 3 weeks in presence of docetaxel (reference value: 15 days); type: functional
# [11] = Toxicity in athymic NCr-nu/nu mouse xenografted with human 2LMP cells assessed as effect on body weight gain at 50 mg/kg, ip administered 5 times a week for 3 weeks; type: organism-based; conditions: in vivo, 504 h
# [12] = target: ELAV-like protein 1 (Homo sapiens) (UniProt Q15717); assay: Thermal stabilization of HuR in human MDA-MB-231 cells at 20 uM at 42 to 54 degreeC incubated for 1 hr by western blot based cellular thermal shift assay; type: cell-based
# MDA-MB-231 [13] = assay: Antitumor activity against human MDA-MB-231 cells xenografted athymic NCr-nu/nu mouse assessed as tumor growth delay by measuring tumor size at 400 mm^3 at 50 mg/kg, ip administered 5 times a week for 3 weeks (reference value: 15 days); type: functional
# MDA-MB-231 [14] = assay: Downregulation of Bcl-2 protein expression in human MDA-MB-231 cells incubated for 48 hrs by Western blotting analysis; type: functional, cell-based; conditions: dose 5-10 µM
# MDA-MB-231 [15] = assay: Cytotoxicity against human MDA-MB-231 cells assessed as inhibition of cell growth by MTT assay; type: functional, cell-based
# [16] = Antitumor activity against human 2LMP cells xenografted athymic NCr-nu/nu mouse assessed as tumor growth inhibition at 50 mg/kg, ip administered 5 times a week for 3 weeks; type: functional; conditions: 504 h, read-out: TGI
# MDA-MB-231 [17] = assay: Inhibition of HuR-TGFB2 mRNA binding in human MDA-MB-231 cells assessed as half life of TGFB2 in presence of actinomycin D (reference value: 7.202 hrs); type: cell-based
# MDA-MB-231 [18] = assay: Downregulation of XIAP protein expression in human MDA-MB-231 cells incubated for 48 hrs by Western blotting analysis; type: functional, cell-based; conditions: dose 5-10 µM
# MDA-MB-231 [19] = assay: Cytotoxicity against HuR knockout 1 human MDA-MB-231 cells assessed as inhibition of cell growth by MTT assay (reference value: 5.320 uM); type: functional, cell-based
# MDA-MB-231 [20] = assay: Antitumor activity against human MDA-MB-231 cells xenografted athymic NCr-nu/nu mouse assessed as reduction in tumor size at 50 mg/kg, ip administered 5 times a week for 3 weeks; type: functional, organism-based
# MDA-MB-231 [21] = assay: Inhibition of cell invasion of human MDA-MB-231 cells at 10 uM incubated for 24 hrs by crystal violet staining based analysis; type: functional
# MDA-MB-231 [22] = assay: Inhibition of HuR-THBS1 mRNA binding in human MDA-MB-231 cells incubated for 6 hrs by RNP immunoprecipitation assay; type: cell-based
# MDA-MB-231 [23] = assay: Cytotoxicity against HuR knockout 2 human MDA-MB-231 cells assessed as inhibition of cell growth by MTT assay (reference value: 5.320 uM); type: functional, cell-based
# MDA-MB-231 [24] = assay: Inhibition of HuR-TGFB2 mRNA binding in human MDA-MB-231 cells incubated for 6 hrs by RNP immunoprecipitation assay; type: cell-based
# MDA-MB-231 [25] = assay: Inhibition of HuR-Bcl-2 mRNA binding in human MDA-MB-231 cells at 10 uM incubated for 6 hrs by RNP immunoprecipitation assay; type: cell-based
# MDA-MB-231 [26] = assay: Inhibition of HuR-Msi2 mRNA binding in human MDA-MB-231 cells at 10 uM incubated for 6 hrs by RNP immunoprecipitation assay; type: cell-based
# [27] = target: RNA-binding protein Musashi homolog 2 (Homo sapiens) (UniProt Q96DH6); assay: Inhibition of TGFbeta2-induced Msi2 protein expression in human MDA-MB-231 cells at 10 uM incubated for 48 hrs by Western blotting analysis; type: cell-based
# MDA-MB-231 [28] = assay: Antitumor activity against human MDA-MB-231 cells xenografted athymic NCr-nu/nu mouse assessed as reduction in tumor size at 50 mg/kg, ip administered 5 times a week for 3 weeks in presence of docetaxel; type: functional, organism-based
# [29] = target: RNA-binding protein Musashi homolog 2 (Homo sapiens) (UniProt Q96DH6); assay: Inhibition of TGFbeta1-induced Msi2 protein expression in human MDA-MB-231 cells at 10 uM incubated for 48 hrs by Western blotting analysis; type: cell-based
# MDA-MB-231 [30] = assay: Downregulation of HuR protein expression in human MDA-MB-231 cells at 5 to 10 uM incubated for 48 hrs by Western blotting analysis; type: functional, cell-based; conditions: dose 5-10 µM
# [31] = target: Thrombospondin-1 (Homo sapiens) (UniProt P07996); assay: Inhibition of TGFbeta1-induced THBS1 protein expression in human MDA-MB-231 cells at 10 uM incubated for 48 hrs by Western blotting analysis; type: cell-based
# Chain of ELAV-like protein 1 (Homo sapiens) (Q15717 whole entry): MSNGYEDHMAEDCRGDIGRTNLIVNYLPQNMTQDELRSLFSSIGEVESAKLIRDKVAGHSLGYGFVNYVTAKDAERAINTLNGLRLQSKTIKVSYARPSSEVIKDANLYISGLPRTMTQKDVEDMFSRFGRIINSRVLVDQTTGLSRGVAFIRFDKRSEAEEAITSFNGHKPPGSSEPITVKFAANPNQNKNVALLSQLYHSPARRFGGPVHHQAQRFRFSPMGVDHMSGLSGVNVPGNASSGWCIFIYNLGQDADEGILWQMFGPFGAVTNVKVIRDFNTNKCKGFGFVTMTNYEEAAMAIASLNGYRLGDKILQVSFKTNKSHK
# Chain of RNA-binding protein Musashi homolog 2 (Homo sapiens) (Q96DH6 whole entry): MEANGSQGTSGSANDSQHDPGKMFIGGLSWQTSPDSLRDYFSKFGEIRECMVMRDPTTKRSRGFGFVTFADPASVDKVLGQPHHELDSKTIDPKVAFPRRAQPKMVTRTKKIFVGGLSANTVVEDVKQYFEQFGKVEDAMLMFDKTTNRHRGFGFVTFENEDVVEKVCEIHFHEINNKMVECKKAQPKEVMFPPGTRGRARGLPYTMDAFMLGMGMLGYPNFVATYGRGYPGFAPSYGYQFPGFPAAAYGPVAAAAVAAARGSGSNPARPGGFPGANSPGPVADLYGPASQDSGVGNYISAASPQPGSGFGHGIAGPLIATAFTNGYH
# Chain of Thrombospondin-1 (Homo sapiens) (P07996 19-1170 limits assumed): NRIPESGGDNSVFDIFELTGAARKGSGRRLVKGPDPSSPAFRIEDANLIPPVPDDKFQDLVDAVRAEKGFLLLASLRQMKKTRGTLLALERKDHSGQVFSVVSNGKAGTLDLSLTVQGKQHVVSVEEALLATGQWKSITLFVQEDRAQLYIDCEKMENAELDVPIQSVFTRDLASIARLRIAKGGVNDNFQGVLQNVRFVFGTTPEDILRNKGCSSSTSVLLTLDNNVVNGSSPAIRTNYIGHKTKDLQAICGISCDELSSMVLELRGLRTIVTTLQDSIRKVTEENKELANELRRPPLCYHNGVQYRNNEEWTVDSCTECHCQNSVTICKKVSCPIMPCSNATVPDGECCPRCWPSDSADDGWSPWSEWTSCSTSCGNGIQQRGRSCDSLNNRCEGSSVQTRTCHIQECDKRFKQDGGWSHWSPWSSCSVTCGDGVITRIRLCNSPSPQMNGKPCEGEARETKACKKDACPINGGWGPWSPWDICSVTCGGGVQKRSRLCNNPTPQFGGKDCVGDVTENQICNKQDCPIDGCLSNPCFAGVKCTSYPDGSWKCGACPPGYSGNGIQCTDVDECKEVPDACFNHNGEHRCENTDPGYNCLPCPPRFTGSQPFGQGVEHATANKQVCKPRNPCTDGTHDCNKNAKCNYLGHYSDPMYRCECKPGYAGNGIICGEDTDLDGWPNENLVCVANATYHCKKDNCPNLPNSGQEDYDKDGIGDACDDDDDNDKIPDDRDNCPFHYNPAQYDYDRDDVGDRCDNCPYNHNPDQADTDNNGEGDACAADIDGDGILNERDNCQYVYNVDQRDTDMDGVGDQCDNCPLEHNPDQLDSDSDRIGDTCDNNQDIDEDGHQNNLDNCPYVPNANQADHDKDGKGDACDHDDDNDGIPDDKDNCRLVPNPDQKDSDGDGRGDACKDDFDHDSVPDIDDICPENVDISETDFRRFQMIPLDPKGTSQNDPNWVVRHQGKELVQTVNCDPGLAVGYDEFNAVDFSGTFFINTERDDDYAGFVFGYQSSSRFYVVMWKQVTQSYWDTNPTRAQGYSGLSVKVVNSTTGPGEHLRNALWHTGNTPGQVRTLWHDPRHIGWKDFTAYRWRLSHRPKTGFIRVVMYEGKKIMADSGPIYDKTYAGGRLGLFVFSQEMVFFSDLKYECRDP
smiles,measurement,setting,value
CC(C)(C)c1ccc(C(=O)Nc2ccc3[nH]c(C(=O)NO)cc3c2)cc1,T1/2,MDA-MB-231 [1],6.15 h
same,inhibition,[2],Active
same,inhibition,MDA-MB-231 [3],Active
same,inhibition,[4],Active
same,IC50,[5],2.77 µM
same,Ki,[5],0.65 µM
same,inhibition,[6],Active
same,inhibition,MDA-MB-231 [7],Active
same,Activity,MDA-MB-231 [8],Dose-Dependent Effect
same,Activity,MDA-MB-231 [9],Active
same,Time,MDA-MB-231 [10],32 days
same,Activity,[11],Non-Toxic
same,Activity,[12],Active
same,Time,MDA-MB-231 [13],18 days
same,Activity,MDA-MB-231 [14],Dose-Dependent Effect
same,IC50,MDA-MB-231 [15],4.74 µM
same,inhibition in vivo at 50 mg/kg,[16],35%
same,T1/2,MDA-MB-231 [17],4.76 h
same,Activity,MDA-MB-231 [18],Dose-Dependent Effect
same,IC50,MDA-MB-231 [19],16.1 µM
same,Activity,MDA-MB-231 [20],Active
same,inhibition,MDA-MB-231 [21],Active
same,inhibition,MDA-MB-231 [22],Active
same,IC50,MDA-MB-231 [23],12.5 µM
same,inhibition,MDA-MB-231 [24],Active
same,inhibition,MDA-MB-231 [25],Active
same,inhibition,MDA-MB-231 [26],Active
same,inhibition,[27],Active
same,Activity,MDA-MB-231 [28],Active
same,inhibition,[29],Active
same,Activity,MDA-MB-231 [30],inactive
same,inhibition,[31],Active
